From patent US20250041307A1, “Uses of Bicyclic Compounds for the Treatment of Diseases” (Athira Pharma, Inc., priority 2021, published 2025)
Values belong to the molecule of their own block, whether it stands above or below them.

Columns and labels:
[1] = In vivo tissue distribution; parameters: species or system Sprague-dawley rats; conditions: rat, 10 minutes post administration
Experimental: The rate of distribution to target tissues is an important feature of therapeutic molecules. Tissue distribution of exemplary compounds was performed in mixed-sex Sprague-dawley rats. Test compounds were delivered via tail vein injection (IV) and tissues were collected at Tmax (10 minutes post administration). Animals were deeply anesthetized with isoflurane and whole blood was collected from the right atrium and processed by centrifugation to produce plasma. Animals were then fully perfused with PBS administered to the left ventricle to prevent blood contamination of tissues.
Tissues were collected and homogenized, and compound content in the target tissue was quantified by LC-MS/MS. Tissue distribution rates were determined by dividing the tissue concentration of compound by the plasma concentration and multiplying by 100.

[2] = In vitro stability in rat plasma; type: in vitro ADME; conditions: 5 μM, 37° C.
Experimental: (§1) Bioavailability can be estimated by compound stability when exposed to conditions in the body. As an initial assessment of stability properties in a variety of conditions present in animals, exemplary compounds were tested for stability in a battery of simulated body compartments. Compounds were tested for stability in the following solutions: simulated gastric fluid (SGF: 34.2 mM NaCl, pH 1.2), simulated gastric fluid with the digestive enzyme pepsin (SGF+Enzyme: SGF with 3.2 mg/ml pepsin), simulated intestinal fluid with the mixture of enzymes in porcine pancreatin (SIF+Enzyme: 28.7 mM NaH2PO4, 105.7 mM NaCl, pH 6.8, 10 mg/ml pancreatin), rat plasma, and human plasma.
(§2) Test compounds were incubated at a final concentration of 5 μM in the above solutions at 37° C. with samples removed at the following time points: 0, 1, 2, and 4 hours. Reactions were stopped and prepared for quantification by addition of excess quench solution containing an internal standard (acetonitrile, 200 ng/mL bucetin). Test compound and internal standard in each sample was quantified by LC-MS/MS, and after internal normalization to bucetin, test compound concentration was expressed as a percentage of concentration at the 0-hour time point. Stability in the relevant test solution was then determined by the percent remaining at the 4-hour time point.

[3] = system: scopolamine-induced cognitive impairment; assay: Scopolamine-induced cognitive impairment, T-maze spontaneous alternation task; type: in vivo, CD-1 mice; parameters: key to Significance (compared to scopolamine only): * = p < 0.05; ** = p < 0.01; ns = not significant; conditions: mice; for Spontaneous alternations %: scopolamine 0.89 mg/kg; for Significance (compared to scopolamine only): spontaneous alternations
Description: Mild cognitive impairment can be assessed in rodent models via delivery of various compounds that interfere with normal neurotransmitter signaling. Scopolamine is a compound that is well-known to antagonize muscarinic acetylcholine receptors, nicotinic receptors, as well as glutamatergic receptors such as NMDA receptors. Thus, delivery of scopolamine results in cognitive impairment, which can be assessed in a variety of cognitive tasks. Positive modulation of the HGF/MET system can promote NMDA receptor activation and results in pro-cognitive effects. Two test compounds, Compound 1a and Compound 5a, were evaluated for their ability to protect against scopolamine-induced cognitive impairment.
In this study, mild cognitive impairment was modeled in otherwise healthy male CD-1 mice (4-5 weeks old at study start) by acute delivery of 0.89 mg/kg scopolamine (dissolved in saline). Test compounds were administered via oral gavage 0.5 hours prior to scopolamine exposure, and cognitive performance was assessed in the T-maze spontaneous alternation task 0.5 hours after scopolamine exposure (1 hour following test compound exposure). The experimental protocol consisted of one single session, which started with 1 “forced-choice” trial, followed by 14 “free-choice” trials. In the first “forced-choice” trial, the animal was confined 5 seconds in the start arm and was then released while either the left or right goal arm was blocked by a horizontal door. After the mouse entered the open goal arm and returned to the start position, the left or right goal door was opened, and the animal was allowed to choose freely between the left and right goal arm (“free choice trials”). The animal was considered to have entered into an arm when it placed its four paws in the arm. Normal animals will choose to explore the previously-unexplored arm, which is recorded as a spontaneous alternation. […] The session was terminated, and the animal was removed from the maze as soon as 14 free-choice trials had been performed or 10 min had elapsed, whichever event occurred first.
This percentage was defined as entry into a different goal arm of the T maze over successive trials (e.g., left-right-left-right) and was calculated using the formula: (% alternations=Number of Alternations/14*100). Both compounds attenuated the degree of scopolamine-induced cognitive impairment, as indicated by increased percent of spontaneous alternations compared to scopolamine-only controls. Statistical analysis was accomplished via 1-way ANOVA with Dunnet's multiple comparisons post-test.

[4] = Parallel artificial membrane permeability assay (PAMPA); type: in vitro ADME; conditions: PBS, room temperature for 5 hours, 200 uM in donor well
Summary of the method: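 Compounds in PBS (initial donor concentration 200 uM) placed in donor wells against PBS acceptor, 5 replicates, incubated 5 hours at room temperature. Donor and acceptor concentrations quantified by UV plate reading against per-compound 6-point standard curves; permeability and membrane retention calculated from concentrations, volumes, filter area and time.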

[5] = In vitro stability in human plasma; type: in vitro ADME; conditions: 5 μM, 37° C.
Experimental: as §1, §2

Papp at 5 h, 200 uM [4]: > 2 ×10⁻⁶ cm/s
SMILES: CCC(C)CN1CC2N(C(=O)c3ccc(C(F)(F)F)cc3)CCC(=O)N2[C@@H](C)C1=O (stereo partly shown) [Compound 1a]
Tissue Distribution (% Plasma exposure at 10 min post IV dose) Brain [1]: ++ (++ indicates distribution between 5 and 39%) | Tissue Distribution (% Plasma exposure at 10 min post IV dose) Cerebellum [1]: ++ (++ indicates distribution between 5 and 39%) | Tissue Distribution (% Plasma exposure at 10 min post IV dose) Cortex [1]: ++ (++ indicates distribution between 5 and 39%) | Tissue Distribution (% Plasma exposure at 10 min post IV dose) Hippocampus [1]: ++ (++ indicates distribution between 5 and 39%) | Rat Plasma, compound remaining after 4 hours [2]: ++ (++ indicates 40-79% compound remaining after 4 hours) | Spontaneous alternations % ([3]; 0.5 mg/kg via PO): 52% | Significance (compared to scopolamine only) ([3]; 0.5 mg/kg via PO): ** (** = p < 0.01) | Spontaneous alternations % ([3]; 2 mg/kg via PO): 55% | Significance (compared to scopolamine only) ([3]; 2 mg/kg via PO): ** (** = p < 0.01) | Spontaneous alternations % ([3]; 8 mg/kg via PO): 47% | Significance (compared to scopolamine only) ([3]; 8 mg/kg via PO): ns | Spontaneous alternations % ([3]; 16 mg/kg via PO): 51% | Significance (compared to scopolamine only) ([3]; 16 mg/kg via PO): * (* = p < 0.05) | Spontaneous alternations % ([3]; 32 mg/kg via PO): 55% | Significance (compared to scopolamine only) ([3]; 32 mg/kg via PO): ** (** = p < 0.01) | Human Plasma, compound remaining after 4 hours [5]: ++ (++ indicates 40-79% compound remaining after 4 hours)

Papp at 5 h, 200 uM [4]: < 2 ×10⁻⁶ cm/s
SMILES: CCC(C)CN1CC2N(Cc3ccc(C(F)(F)F)cc3)CCC(=O)N2[C@@H](C)C1=O (stereo partly shown) [Compound 5a]
Tissue Distribution (% Plasma exposure at 10 min post IV dose) Brain [1]: ++++ (++++ indicates distribution above 70%) | Tissue Distribution (% Plasma exposure at 10 min post IV dose) Cerebellum [1]: ++++ (++++ indicates distribution above 70%) | Tissue Distribution (% Plasma exposure at 10 min post IV dose) Cortex [1]: ++++ (++++ indicates distribution above 70%) | Tissue Distribution (% Plasma exposure at 10 min post IV dose) Hippocampus [1]: ++++ (++++ indicates distribution above 70%) | Rat Plasma, compound remaining after 4 hours [2]: ++ (++ indicates 40-79% compound remaining after 4 hours) | Spontaneous alternations % ([3]; 1.25 mg/kg via PO): 51% | Significance (compared to scopolamine only) ([3]; 1.25 mg/kg via PO): * (* = p < 0.05) | Spontaneous alternations % ([3]; 2.5 mg/kg via PO): 57% | Significance (compared to scopolamine only) ([3]; 2.5 mg/kg via PO): ** (** = p < 0.01) | Spontaneous alternations % ([3]; 5 mg/kg via PO): 52% | Significance (compared to scopolamine only) ([3]; 5 mg/kg via PO): * (* = p < 0.05) | Spontaneous alternations % ([3]; 10 mg/kg via PO): 55% | Significance (compared to scopolamine only) ([3]; 10 mg/kg via PO): ** (** = p < 0.01) | Spontaneous alternations % ([3]; 20 mg/kg via PO): 52% | Significance (compared to scopolamine only) ([3]; 20 mg/kg via PO): * (* = p < 0.05) | Human Plasma, compound remaining after 4 hours [5]: ++ (++ indicates 40-79% compound remaining after 4 hours)
